Consider 8 compounds from patent US8759324B2 (priority 2006, dated 2014).

The conditions of data set [1]: in vivo, iv; cited from earlier work.
The conditions of data set [2]: when carboxylates are protonated; cited from earlier work.
Data set [3] can be described thus: Electrochemistry: metal-centered redox potential (voltammetry). Format: physicochemical. Particulars: for E1/2 (H2O)M^IIIP/(H2O)M^IIP: 0.1M NaCl and 0.01 M HCl, errors ±3 mV. How it is done: The electrochemistry was done as previously described on CH Instruments 600 Voltammetric Analyzer. The metal-centered redox potentials of aquametalloporhyrins were measured in 0.1 M NaCl and 0.01 M HCl. […] Thus, their voltammograms were obtained in 0.1 M NaCl, 0.1 M 1-methylimidazole, 0.05 M phosphate buffer, pH 7.8. Scan rates were 0.1 V/s. The potentials were standardized against MnTE-2-PyP^5+ and are given in Table 1, in mV versus normal hydrogen electrode, NHE [42].

Data set [4] is described as follows: Stability of metalloporphyrins to oxidative degradation (bleaching), spectrophotometric. Particulars: for remaining fraction of metalloporphyrin: after 6 hours, in the presence of cyclophosphamide, pH 7.4, 10 μM porphyrin; for remaining fraction of metalloporphyrin / stability to oxidative degradation / bleaching (in words): aerobic; for stability to oxidative degradation / bleaching (in words): pH 7.4, ascorbic acid.

For data set [5] the following is noted: cited from earlier work.
Data set [6] is described as follows: Precipitation of anionic porphyrins at acidic pH. Format: physicochemical. The settings on record: pH 5.5, ~50% of carboxylate groups protonated.
The conditions of data set [7]: cited from earlier work. This is another data set of the same source.
For data set [8] the following is noted: pH 7.4; for remaining fraction of metalloporphyrin: buffer, 6 h.
[9] abbreviates: 0.1 M NaCl, 0.1 M 1-methylimidazole, 0.05 M phosphate buffer, pH 7.8, scan rate 0.1 V/s.
[10] abbreviates: footnote b: ref 42, pH 7.8, 0.05 M phosphate buffer, 0.1M NaCl, 0.5 mM porphyrin.
The mark [11] stands for this setting: footnote a: estimated from existing potentials of difluoro- and dichloro analogues [42] and those obtained herein.

Like-named read-outs stand apart in the source and are kept apart here.

Consider `O=P1(N(CCCl)CCCl)NCCCO1` (stereo not drawn) [CP, cyclophosphamide], for which, in [1], the “CP hydroxylated to 4-OHCP in plasma” value is reported as “around 2.4%” and the “peak CP levels in plasma” value was 27.58 μg/mL μM.
Take `C=CC1=C(C)c2cc3[n-]c(cc4[n-]c(cc5nc(cc1n2)C(C)=C5C=C)c(C)c4CCC(=O)O)c(CCC(=O)O)c3C.[Cl-].[Fe+3]` [FePP-IX^−, Fe(III) protoporphyrin IX]: the “precipitation under acidic conditions” value in [2] was “precipitate under acidic conditions”. Moreover, in data set [3] (setting [9]), the “E1/2 (1-MeIm)2M^IIIP/(1-MeIm)2M^IIP” value amounted to 112 mV vs NHE. Further, the “remaining fraction of metalloporphyrin” value in [4] (2 mM ascorbic acid) stood at 71%. Moreover, the “stability to oxidative degradation / bleaching (in words)” value in [4] is recorded as “very resistant to bleaching”. In data set [5], the “pKa of carboxylate groups” value is approximately 5. Further, in data set [6], the “precipitation at pH 5.5” value was “precipitate out of the solutions”.
As to `C[n+]1ccccc1-c1c2nc(c(-c3cccc[n+]3C)c3ccc([n-]3)c(-c3cccc[n+]3C)c3nc(c(-c4cccc[n+]4C)c4ccc1[n-]4)C=C3)C=C2.[Fe+3]` [FeTM-2-PyP^5+, Fe(III) tetrakis(N-methylpyridinium-2-yl)porphyrin], the “change of absorbance at 417.5 nm (porphyrin degradation)” value in [4] (9 μM porphyrin, 2 mM ascorbic acid, +/−50 μM H2O2, +/−50 mM mannitol, PBS pH 7.4, 25° C., data not shown) is “decreased slowly”. Besides, in [4] (2 mM ascorbic acid), the “remaining fraction of metalloporphyrin” value is 41%. Also, in data set [7] (setting [10]), the “E1/2 (1-MeIm)2M^IIIP/(1-MeIm)2M^IIP” value was “+432^b mV vs NHE”, the “E1/2 (H2O)M^IIIP/(H2O)M^IIP” value is recorded as “+355^b mV vs NHE” and the “E1/2 (OH)M^IIIP/(H2O)M^IIP” value was “+212^b mV vs NHE”.
As for `C[n+]1ccccc1-c1c2nc(c(-c3cccc[n+]3C)c3ccc([n-]3)c(-c3cccc[n+]3C)c3nc(c(-c4cccc[n+]4C)c4ccc1[n-]4)C=C3)C=C2.[Mn+3]` [MnTM-2-PyP^5+, Mn(III) tetrakis(N-methylpyridinium-2-yl)porphyrin], the “remaining fraction of metalloporphyrin” value in data set [4] (2 mM ascorbic acid) was found to be 91%. In addition, in [7] (setting [10]), the “E1/2 (OH)M^IIIP/(H2O)M^IIP” value was “+128^b mV vs NHE”.
Turning to `C[n+]1cccc(-c2c3nc(c(-c4ccc[n+](C)c4)c4ccc([n-]4)c(-c4ccc[n+](C)c4)c4nc(c(-c5ccc[n+](C)c5)c5ccc2[n-]5)C=C4)C=C3)c1.[Mn+3]` [MnTM-3-PyP^5+, Mn(III) tetrakis(N-methylpyridinium-3-yl)porphyrin], in data set [4] (2 mM ascorbic acid), the “remaining fraction of metalloporphyrin” value is 94%. For the same compound, the “E1/2 (OH)M^IIIP/(H2O)M^IIP” value in data set [7] (footnote c: ref 62, pH 11 where only 33% of (OH)MnTM-3-PyP^4+ exists) was “+42^c mV vs NHE”.
For “Fe(III) meso tetrakis(2,6-dichloro-3-sulfonatophenyl)porphyrin [FeT(2,6-Cl2-3-SO3P)P^3−]”, in [3] (scan rate 0.1 V/s), the “E1/2 (H2O)M^IIIP/(H2O)M^IIP” value is recorded as “+144^ mV vs NHE”. For the same compound, in data set [7] (setting [10]), the “E1/2 (1-MeIm)2M^IIIP/(1-MeIm)2M^IIP” value is reported as “+134^b mV vs NHE” and the “E1/2 (OH)M^IIIP/(H2O)M^IIP” value is “+94^b mV vs NHE”. For the same compound, in data set [8], the “remaining fraction of metalloporphyrin” value was determined as 23% and the “stability to oxidative degradation / bleaching (in words)” value is listed as “least stable”.
As to “Fe(III) meso tetrakis(2,6-difluoro-3-sulfonatophenyl)porphyrin [FeT(2,6-F2-3-SO3P)P^3−]”, in data set [3] (scan rate 0.1 V/s), the “E1/2 (H2O)M^IIIP/(H2O)M^IIP” value is given as “+124^ mV vs NHE”. In addition, in [3] (setting [11]), the “E1/2 (1-MeIm)2M^IIIP/(1-MeIm)2M^IIP” value is reported as “+114^a mV vs NHE” and the “E1/2 (OH)M^IIIP/(H2O)M^IIP” value is on record as “+74^a mV vs NHE”. Moreover, where the note is “pH 5.5”, the 4-OHCP produced was 46.11 µM and the “cyclophosphamide hydroxylated relative to 10 μM porphyrin” value was approximately 5 fold. In addition, under “pH 7.4”, the 4-OHCP formed came out at 15.62 µM. For the same compound, in data set [8], the “remaining fraction of metalloporphyrin” value stood at 19% and the “stability to oxidative degradation / bleaching (in words)” value is listed as “least stable”.
For “Fe(III) meso tetrakis(4-carboxylatophenyl)porphyrin [FeTBAP^3−]”, in [2], the “precipitation under acidic conditions” value is listed as “precipitate under acidic conditions”. Also, the “E1/2 (1-MeIm)2M^IIIP/(1-MeIm)2M^IIP” value in data set [3] (setting [9]) is listed as “+22 ^ mV vs NHE”. Besides, the “remaining fraction of metalloporphyrin” value in data set [4] (2 mM ascorbic acid) is given as 24%. Also, the “stability to oxidative degradation / bleaching (in words)” value in [4] is “more prone to destruction”. Moreover, in data set [5], the “pKa of carboxylate groups” value is reported as approximately 5. For the same compound, the “precipitation at pH 5.5” value in data set [6] was “precipitate out of the solutions”.
